From patent US20250145665A1, “MACROCYCLIC PEPTIDES USEFUL AS MODULATORS OF TNF ALPHA” (Bristol-Myers Squibb Company, priority 2023, published 2025) come the findings set out here.

The structures appear in SMILES notation. Starred links: 1 amine or outer side, 2 acyl side, 3 side chain; linkers in the order of their positions; H or OH if unused. Positions of bridges follow the written chain, without caps; N, C: chain ends. Non-standard residues stand in square brackets, D forms with d. Residues, ends and D or L forms follow the SMILES beside them. *: point of attachment. Bip(4'-NHCO-C6H4-3-CH2COOH) = N[C@@H](Cc1ccc(-c2ccc(NC(=O)c3cccc(CC(=O)O)c3)cc2)cc1)C(=O)O; Bip(4'-NHBz) = N[C@@H](Cc1ccc(-c2ccc(NC(=O)c3ccccc3)cc2)cc1)C(=O)O; dArg(ω-(2S)-2,3-diOHpropyl) = N=C(NCCC[C@@H](N)C(=O)O)NC[C@H](O)CO; Bip(4'-NH) = O=C([C@H](Cc1ccc(-c2ccc(N[*:3])cc2)cc1)N[*:1])[*:2]; dArg(ω-(3-HO-benzyl)) = N=C(NCCC[C@@H](N)C(=O)O)NCc1cccc(O)c1; Indazole3carbonyl(1-CH2COOH) = O=C(O)Cn1nc(C(=O)*)c2ccccc21; Indole3carbonyl(1-CH2COOH) = O=C(O)Cn1cc(C(=O)*)c2ccccc21; X55 = N=C(NCCC[C@@H](N[*:1])C(=O)[*:2])NCCc1cccnc1; Ala(morpholin-4-yl) = N[C@@H](CN1CCOCC1)C(=O)O; Phe(3-CONH2) = NC(=O)c1cccc(C[C@H](N)C(=O)O)c1; Bip = N[C@@H](Cc1ccc(-c2ccccc2)cc1)C(=O)O; Phe(2-F) = N[C@@H](Cc1ccccc1F)C(=O)O; Val(3-OH) = CC(C)(O)[C@H](N)C(=O)O; 2Pal = N[C@@H](Cc1ccccn1)C(=O)O; Cha = N[C@@H](CC1CCCCC1)C(=O)O; Sar = CNCC(=O)O

The target in one experiment is TNFα (Homo sapiens, UniProt P01375). Nature of the experiment: TNF-Induced HEK-Blue Assay.
Sequence of TNFα (P01375 77-233 limits assumed): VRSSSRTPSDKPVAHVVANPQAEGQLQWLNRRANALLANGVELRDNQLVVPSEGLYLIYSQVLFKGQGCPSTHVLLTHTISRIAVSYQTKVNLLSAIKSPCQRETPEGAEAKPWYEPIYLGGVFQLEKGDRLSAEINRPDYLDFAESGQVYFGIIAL
Settings: not given
It is filed as cell-based.
For `CC(C)C[C@@H]1NC(=O)[C@H](Cc2cnc[nH]2)NC(=O)[C@H](C(C)C)NC(=O)[C@@H]2CCCN2C(=O)[C@H](C(C)C)NC(=O)[C@@H](CCCNC(=N)NCc2cccc(O)c2)NC(=O)[C@H](CC(=O)O)NC(=O)[C@H](Cc2ccccn2)NC(=O)CN(C)C(=O)[C@H](Cc2ccc(-c3ccc(NC(=O)c4nn(CC(=O)O)c5ccccc45)cc3)cc2)NC(=O)[C@H](Cc2ccc(-c3ccccc3)cc2)NC(=O)[C@H](CN2CCOCC2)NC(=O)CSC[C@@H](C(=O)NCC(N)=O)NC1=O` [Example 624] ({CH2CO}-[Ala(morpholin-4-yl)][Bip][Bip(4'-NH)](Indazole3carbonyl(1-CH2COOH))[Sar][2Pal]D[dArg(ω-(3-HO-benzyl))]VPVHLCG-NH2; thioether N-13), the IC50 (in general, the midpoint of a concentration-inhibition curve) was less than 50 nM. Turning to `CC[C@H](C)[C@@H]1NC(=O)[C@@H](CCCNC(=N)N)NC(=O)[C@H](CC(=O)O)NC(=O)[C@H](Cc2cnc[nH]2)NC(=O)CN(C)C(=O)[C@H](Cc2ccc(-c3ccc(NC(=O)c4ccccc4)cc3)cc2)NC(=O)[C@H](Cc2ccc(-c3ccccc3)cc2)NC(=O)[C@H](CC2CCCCC2)NC(=O)CSC[C@@H](C(=O)NCC(N)=O)NC(=O)[C@H](CC(C)C)NC(=O)[C@H](Cc2cnc[nH]2)NC(=O)[C@H](C(C)C)NC(=O)[C@@H]2CCCN2C1=O` [Example 315] ({CH2CO}-[Cha][Bip][Bip(4'-NHBz)][Sar]HD[dR]IPVHLCG-NH2; thioether N-13), the IC50 is less than 50 nM. On the same count and under the same terms, then `CC(C)C[C@@H]1NC(=O)[C@H](CCCNC(=N)N)NC(=O)[C@H](C(C)C)NC(=O)[C@@H]2CCCN2C(=O)[C@H](C(C)C)NC(=O)[C@@H](CCCNC(=N)NCc2cccc(O)c2)NC(=O)[C@H](CC(=O)O)NC(=O)[C@@H]2CCCN2C(=O)CN(C)C(=O)[C@H](Cc2ccc(-c3ccc(NC(=O)c4cn(CC(=O)O)c5ccccc45)cc3)cc2)NC(=O)[C@H](Cc2ccc(-c3ccccc3)cc2)NC(=O)[C@H](CN2CCOCC2)NC(=O)CSC[C@@H](C(=O)NCC(N)=O)NC1=O` [Example 565] ({CH2CO}-[Ala(morpholin-4-yl)][Bip][Bip(4'-NH)](Indole3carbonyl(1-CH2COOH))[Sar]PD[dArg(ω-(3-HO-benzyl))]VPVRLCG-NH2; thioether N-13), with less than 50 nM; and `CC(C)C[C@@H]1NC(=O)[C@H](CCCNC(=N)N)NC(=O)[C@H](C(C)C)NC(=O)[C@@H]2CCCN2C(=O)[C@H](C(C)C)NC(=O)[C@@H](CCCNC(=N)NCCc2cccnc2)NC(=O)[C@H](CC(=O)O)NC(=O)[C@@H]2CCCN2C(=O)CN(C)C(=O)[C@H](Cc2ccc(-c3ccc(NC(=O)c4nn(CC(=O)O)c5ccccc45)cc3)cc2)NC(=O)[C@H](Cc2ccc(-c3ccccc3)cc2)NC(=O)[C@H](CN2CCOCC2)NC(=O)CSC[C@@H](C(=O)NCC(N)=O)NC1=O` [Example 434] ({CH2CO}-[Ala(morpholin-4-yl)][Bip][Bip(4'-NH)](Indazole3carbonyl(1-CH2COOH))[Sar]PD[X55]VPVRLCG-NH2; thioether N-13), with 50 to 200 nM.

Staying with this experiment, now noted: HEK-Blue-CD40L cells, NF-kB-driven secreted alkaline phosphatase reporter; TNFα 0.5 ng/ml; 18 h; read-out: TNF induced HEK-Blue assay IC50 value.
In the case of `CC(C)C[C@@H]1NC(=O)[C@H](CCCNC(=N)N)NC(=O)[C@H](C(C)C)NC(=O)[C@@H]2CCCN2C(=O)[C@H](Cc2ccccc2F)NC(=O)[C@H](CCCNC(=N)N)NC(=O)[C@H](CC(=O)O)NC(=O)[C@@H]2CCCN2C(=O)CN(C)C(=O)[C@H](Cc2ccc(-c3ccccc3)cc2)NC(=O)[C@H](Cc2ccc(-c3ccccc3)cc2)NC(=O)[C@H](C(C)(C)O)NC(=O)CSC[C@@H](C(=O)NCC(N)=O)NC1=O` [Example 59] ({CH2CO}-[Val(3-OH)][Bip][Bip][Sar]PDR[Phe(2-F)]PVRLCG-NH2; thioether N-13), the IC50 was 200 to 2000 nM. On the same count and under the same terms, for `CC(C)C[C@@H]1NC(=O)[C@H](Cc2cccc(C(N)=O)c2)NC(=O)[C@H](C(C)C)NC(=O)[C@@H]2CCCN2C(=O)[C@H](C(C)C)NC(=O)[C@@H](CCCNC(=N)NC[C@H](O)CO)NC(=O)[C@H](CC(=O)O)NC(=O)[C@H](Cc2ccc(O)cc2)NC(=O)CN(C)C(=O)[C@H](Cc2ccc(-c3ccc(NC(=O)c4cccc(CC(=O)O)c4)cc3)cc2)NC(=O)[C@H](Cc2ccc(-c3ccccc3)cc2)NC(=O)[C@H](CN2CCOCC2)NC(=O)CSC[C@@H](C(=O)NCC(N)=O)NC1=O` [Example 549] ({CH2CO}-[Ala(morpholin-4-yl)][Bip][Bip(4'-NHCO-C6H4-3-CH2COOH)][Sar]YD[dArg(ω-(2S)-2,3-diOHpropyl)]VPV[Phe(3-CONH2)]LCG-NH2; thioether N-13) the value was 50 to 200 nM.

On to `CC(C)C[C@@H]1NC(=O)[C@H](Cc2ccc(O)cc2)NC(=O)[C@H](C(C)C)NC(=O)[C@@H]2CCCN2C(=O)[C@H](C(C)C)NC(=O)[C@@H](CCCNC(=N)N)NC(=O)[C@H](CC(=O)O)NC(=O)[C@@H]2CCCN2C(=O)CNC(=O)[C@H](Cc2ccc(-c3ccccc3)cc2)NC(=O)[C@H](Cc2ccc(-c3ccccc3)cc2)NC(=O)[C@H](CN2CCOCC2)NC(=O)CSC[C@@H](C(=O)NCC(N)=O)NC1=O` [Example 129] ({CH2CO}-[Ala(morpholin-4-yl)][Bip][Bip]GPD[dR]VPVYLCG-NH2; thioether N-13), for which the IC50 lay in the range of 200 to 2000 nM.
